From patent publication US12012417B2, “N-substituted tetrahydrothienopyridine derivatives and uses thereof” (NOVARTIS AG, priority 2018, dated 2024) come the findings set out here.

The test system of test [1] is DENV-2 (strain TSV01). Put plainly: Antiviral in vivo efficacy in dengue mouse model. The settings on record: oral gavage, 3 consecutive days, AG129 mice, qRT-PCR. Here is the method:
Antiviral In Vivo Efficacy in Dengue Mouse Model
AG129 mice (lacking IFN-α/β and IFN-γ receptors, (Schul, W. et al. 2007. J. Infect. Dis., 195, 665-74)) was obtained from Biological Resource Center (BRC), Singapore. Male and female AG129 mice aged 8 to 14 weeks (weighed 20-30 grams, n=6 per group) were used. Infection of DENV-2 (strain TSV01) was given intraperitoneally (500 μL, 1.4×10^7 pfu/mL). The DENV-2 strain TSVO1 was used in the mouse model and was propagated in C6/36 mosquito cells. Compounds were formulated (% w/w) in either 0.5% methylcellulose, 0.5% Tween and 99.0% deionized water or 20% polyethylene glycol (PEG300), 10% Cremophor RH40, and 70% 100 mM pH 3 citrate buffer (% v/v). Compounds were dosed immediately after infection through oral gavage for 3 consecutive days. Terminal blood sample (anticoagulant: K2EDTA) was obtained for viremia read-out by qRT-PCR as previously described (Santiago, G. A., et al. 2013. PLoS Negl. Trop. Dis., 7, e2311).

In test [2] the test system is Dengue 3 virus MY05-34640-WT-C6/36. Nature of the test: High-content imaging cell-based flavivirus immunodetection (HCl-CFI) assay, Dengue 3. The settings on record: Dengue virus, A549, 48 h, read-out: Dengue 3 virus MY05-34640-WT-C6/36 in A549 using HCl [Inhibitor/IC50] Qualified AC50.
Test [3] deals with Dengue 4 virus MY01-22713. Nature of the test: High-content imaging cell-based flavivirus immunodetection (HCl-CFI) assay, Dengue 4. Particulars: Dengue virus, A549, 48 h, read-out: Dengue 4 virus MY01-22713 in A549 using HCl [Inhibitor/IC50] Qualified AC50, A549 cells, 48 h, viral E protein expression.
In test [4] the test system is Dengue 2 virus MY97-10340. Put plainly: High-content imaging cell-based flavivirus immunodetection (HCl-CFI) assay, Dengue 2. Particulars: Dengue virus, A549, 48 h, read-out: Dengue 2 virus MY97-10340 in A549 using HCl [Inhibitor/IC50] Qualified AC50, A549 cells, MOI 0.3, 48 h, viral E protein expression. In short, it runs like this:
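A549 cells infected at MOI 0.3, treated with 3-fold, 10-point compound dilutions for 48 h. After paraformaldehyde fixation, viral E protein immunostained with 4G2 antibody and nuclei counterstained; imaged by high-content imaging. EC50 = concentration reducing E protein expression by 50%, from dose-response curves.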

The test system of test [5] is Dengue 1 virus MY97-10245. Nature of the test: High-content imaging cell-based flavivirus immunodetection (HCl-CFI) assay, Dengue 1. Particulars: Dengue virus, A549, 48 h, read-out: Dengue 1 virus MY97-10245 in A549 using HCl [Inhibitor/IC50] Qualified AC50.
Test [6] relates to DENV-2 (strain TSV01). Nature of the test: Antiviral in vivo efficacy in dengue mouse model. The settings on record: 180 mg/kg single dose, oral gavage, AG129 mice, qRT-PCR. A general note: In qPCR the cycle at which signal appears reflects the starting amount.

Each structure is given as a SMILES string. Some results are limits rather than exact numbers.

Take `COc1cc(CC(=O)Nc2sc3c(c2C#N)CN(CC2CCCCC2)CC3)ccc1S(N)(=O)=O` [Example 83, N-(3-cyano-5-(cyclohexylmethyl)-4,5,6,7-tetrahydrothieno[3,2-c]pyridin-2-yl)-2-(3-methoxy-4-sulfamoylphenyl)acetamide]: the “Log DENV-2 viremia reduction” value in the test on DENV-2 (strain TSV01) [1] (30 mg/kg b.i.d.) is 0.60 Log; in the test on DENV-2 (strain TSV01) [1] (100 mg/kg q.d.), 0.94 Log.

Turning to `CC1(C)Cc2sc(NC(=O)Cc3ccc(S(N)(=O)=O)cc3)c(C#N)c2CN1CC1CC(F)(F)C1` [Example 77, N-(3-cyano-5-((3,3-difluorocyclobutyl)methyl)-6,6-dimethyl-4,5,6,7-tetrahydrothieno[3,2-c]pyridin-2-yl)-2-(4-sulfamoylphenyl)acetamide], the EC50 in test [2] is less than 0.1 µM; in test [3] it was less than 0.1 µM; in test [4], less than 0.1 µM; in test [5] it was 0.1 to 1 µM. The “Log DENV-2 viremia reduction” value with DENV-2 (strain TSV01) [1] (30 mg/kg b.i.d.) amounted to 0.62 Log.

On to `CC1Cc2sc(NC(=O)Cc3ccc(S(N)(=O)=O)cc3)c(C#N)c2CN1Cc1cccc(F)c1` (centres unmarked) [Example 53, N-(3-cyano-5-(3-fluorobenzyl)-6-methyl-4,5,6,7-tetrahydrothieno[3,2-c]pyridin-2-yl)-2-(4-sulfamoylphenyl)acetamide], for which the EC50 was less than 0.1 µM in test [2], less than 0.1 µM in test [3], less than 0.1 µM in test [4] and 0.1 to 1 µM in test [5]. The “Log DENV-2 viremia reduction” value with DENV-2 (strain TSV01) [1] (30 mg/kg b.i.d.) came to 0.80 Log; in the test with DENV-2 (strain TSV01) [1] (100 mg/kg b.i.d.), 1.78 Log; in the test with DENV-2 (strain TSV01) [1] (100 mg/kg q.d.), 1.06 Log.

As for `N#Cc1c(NC(=O)Cc2ccc(S(N)(=O)=O)cc2)sc2c1CCN(Cc1cccc(F)c1)C2` [Example 100, N-(3-cyano-6-(3-fluorobenzyl)-4,5,6,7-tetrahydrothieno[2,3-c]pyridin-2-yl)-2-(4-sulfamoylphenyl)acetamide], the “Log DENV-2 viremia reduction” value with DENV-2 (strain TSV01) [1] (100 mg/kg b.i.d.) was 1.50 Log.

For the molecule `N#Cc1c(NC(=O)Cc2ccc(S(N)(=O)=O)cc2)sc2c1CCN(Cc1cc(Cl)ccc1Cl)C2` [Example 109, N-(3-cyano-6-(2,5-dichlorobenzyl)-4,5,6,7-tetrahydrothieno[2,3-c]pyridin-2-yl)-2-(4-sulfamoylphenyl)acetamide], the EC50 was 0.1 to 1 µM in test [2], 0.1 to 1 µM in test [3], 0.1 to 1 µM in test [4] and more than 1 µM in test [5]. The “Log DENV-2 viremia reduction” value in the test with DENV-2 (strain TSV01) [1] (100 mg/kg b.i.d.) was determined as 1.60 Log.

On to `CC1(C)Cc2sc(NC(=O)Cc3ccc(S(N)(=O)=O)cc3)c(C#N)c2CN1CC1CCCCC1` [Example 71, N-(3-cyano-5-(cyclohexylmethyl)-6,6-dimethyl-4,5,6,7-tetrahydrothieno[3,2-c]pyridin-2-yl)-2-(4-sulfamoylphenyl)acetamide], for which the EC50 in test [2], in test [3], in test [4] and in test [5] was less than 0.1 µM throughout. Besides, the “Log DENV-2 viremia reduction” value amounted to 0.51 Log with DENV-2 (strain TSV01) [1] (10 mg/kg b.i.d.); 1.45 Log with DENV-2 (strain TSV01) [1] (30 mg/kg b.i.d.); 1.54 Log in the test with DENV-2 (strain TSV01) [1] (60 mg/kg q.d.); 3.0 Log in the test on DENV-2 (strain TSV01) [1] (100 mg/kg b.i.d.); 1.49 Log in the test on DENV-2 (strain TSV01) [6].
